# Assay results reported in ChEMBL document CHEMBL1127761, “Two new phospholipase d inhibitors, sch 49211 and sch 49212, produced by the fungus nattrasia mangirferae” (Bioorg Med Chem Lett, 1994).
# System: HL-60
# Assay: In vitro inhibitory activity against phospholipase D (PLD) activation in HL-60 cells by phospholipase D assay
# Type: cell-based
# Conditions: Homo sapiens
row,IC50 [µM],SMILES
1,12,O=C1C(O)=CC2(Oc3cccc4cccc(c34)O2)[C@@]23O[C@@]12[C@@H](O)CC[C@H]3O
2,11,O=C1C(O)=CC2(Oc3cccc4cccc(c34)O2)[C@@]23O[C@@]12[C@@H](O)C=C[C@H]3O
